Test results reported in ChEMBL document CHEMBL3396955, “Discovery of non-electrophilic capsaicinoid-type TRPA1 ligands” (Bioorg Med Chem Lett, 2015).

How the values were obtained:
Assay type in all cases: cell-based; call rule not given here
[1] = target: T1, Transient receptor potential cation channel subfamily V member 1 (Homo sapiens, UniProt Q8NER1); assay: Antagonist activity against human recombinant TRPV1 expressed in HEK293 cells assessed as inhibition of capsaicin-induced Ca2+ influx pre-treated 5 mins before capsaicin addition by Fluo-4 dye based assay
[2] = target: T1, Transient receptor potential cation channel subfamily V member 1; assay: Agonist activity at human recombinant TRPV1 expressed in HEK293 cells assessed as Ca2+ influx by Fluo-4 dye based assay relative to 4 uM ionomycin
[3] = target: T1, Transient receptor potential cation channel subfamily V member 1; assay: Agonist activity at human recombinant TRPV1 expressed in HEK293 cells assessed as Ca2+ influx by Fluo-4 dye based assay
[4] = target: T2, Transient receptor potential cation channel subfamily A member 1 (Rattus norvegicus, UniProt Q6RI86); assay: Agonist activity at rat recombinant TRPA1 expressed in HEK293 cells assessed as Ca2+ influx by Fluo-4 dye based assay
[5] = target: T2, Transient receptor potential cation channel subfamily A member 1; assay: Antagonist activity against rat recombinant TRPA1 expressed in HEK293 cells assessed as inhibition of AITC-induced Ca2+ influx pre-treated 5 mins before capsaicin addition by Fluo-4 dye based assay
[6] = target: Transient receptor potential cation channel subfamily A member 1 (Rattus norvegicus) (UniProt Q6RI86); assay: Agonist activity at rat recombinant TRPA1 expressed in HEK293 cells assessed as Ca2+ influx by Fluo-4 dye based assay relative to 100 uM AITC
Transient receptor potential cation channel subfamily A member 1 (Rattus norvegicus), sequence (Q6RI86 whole entry): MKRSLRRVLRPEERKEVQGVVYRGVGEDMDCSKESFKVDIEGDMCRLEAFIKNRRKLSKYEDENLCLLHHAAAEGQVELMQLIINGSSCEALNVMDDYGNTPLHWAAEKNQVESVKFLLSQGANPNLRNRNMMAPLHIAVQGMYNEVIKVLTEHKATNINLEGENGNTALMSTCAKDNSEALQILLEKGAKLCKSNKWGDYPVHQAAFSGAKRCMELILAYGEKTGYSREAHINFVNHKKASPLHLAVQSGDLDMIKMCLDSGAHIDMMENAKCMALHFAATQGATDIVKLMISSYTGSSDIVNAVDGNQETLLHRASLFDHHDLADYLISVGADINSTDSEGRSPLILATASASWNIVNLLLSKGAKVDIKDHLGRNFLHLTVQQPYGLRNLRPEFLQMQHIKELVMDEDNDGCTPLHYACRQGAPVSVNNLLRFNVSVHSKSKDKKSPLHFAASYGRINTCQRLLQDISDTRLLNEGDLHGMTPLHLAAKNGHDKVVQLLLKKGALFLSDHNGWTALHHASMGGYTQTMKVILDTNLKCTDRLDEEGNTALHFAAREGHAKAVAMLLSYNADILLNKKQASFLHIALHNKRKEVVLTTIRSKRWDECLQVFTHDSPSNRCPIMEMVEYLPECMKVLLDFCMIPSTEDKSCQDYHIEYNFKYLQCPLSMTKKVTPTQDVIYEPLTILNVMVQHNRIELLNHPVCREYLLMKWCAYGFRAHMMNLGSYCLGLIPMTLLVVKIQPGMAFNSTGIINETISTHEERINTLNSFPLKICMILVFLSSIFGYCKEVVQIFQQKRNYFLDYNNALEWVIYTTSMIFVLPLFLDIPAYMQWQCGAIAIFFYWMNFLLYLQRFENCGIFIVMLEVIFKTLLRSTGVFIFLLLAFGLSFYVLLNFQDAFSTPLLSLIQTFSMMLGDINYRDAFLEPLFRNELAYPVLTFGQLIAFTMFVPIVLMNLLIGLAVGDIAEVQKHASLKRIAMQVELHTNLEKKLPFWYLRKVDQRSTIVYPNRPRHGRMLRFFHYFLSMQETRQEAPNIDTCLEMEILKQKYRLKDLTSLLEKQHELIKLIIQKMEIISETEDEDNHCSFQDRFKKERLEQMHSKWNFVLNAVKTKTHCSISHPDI

T1 sequence (Q8NER1 whole entry): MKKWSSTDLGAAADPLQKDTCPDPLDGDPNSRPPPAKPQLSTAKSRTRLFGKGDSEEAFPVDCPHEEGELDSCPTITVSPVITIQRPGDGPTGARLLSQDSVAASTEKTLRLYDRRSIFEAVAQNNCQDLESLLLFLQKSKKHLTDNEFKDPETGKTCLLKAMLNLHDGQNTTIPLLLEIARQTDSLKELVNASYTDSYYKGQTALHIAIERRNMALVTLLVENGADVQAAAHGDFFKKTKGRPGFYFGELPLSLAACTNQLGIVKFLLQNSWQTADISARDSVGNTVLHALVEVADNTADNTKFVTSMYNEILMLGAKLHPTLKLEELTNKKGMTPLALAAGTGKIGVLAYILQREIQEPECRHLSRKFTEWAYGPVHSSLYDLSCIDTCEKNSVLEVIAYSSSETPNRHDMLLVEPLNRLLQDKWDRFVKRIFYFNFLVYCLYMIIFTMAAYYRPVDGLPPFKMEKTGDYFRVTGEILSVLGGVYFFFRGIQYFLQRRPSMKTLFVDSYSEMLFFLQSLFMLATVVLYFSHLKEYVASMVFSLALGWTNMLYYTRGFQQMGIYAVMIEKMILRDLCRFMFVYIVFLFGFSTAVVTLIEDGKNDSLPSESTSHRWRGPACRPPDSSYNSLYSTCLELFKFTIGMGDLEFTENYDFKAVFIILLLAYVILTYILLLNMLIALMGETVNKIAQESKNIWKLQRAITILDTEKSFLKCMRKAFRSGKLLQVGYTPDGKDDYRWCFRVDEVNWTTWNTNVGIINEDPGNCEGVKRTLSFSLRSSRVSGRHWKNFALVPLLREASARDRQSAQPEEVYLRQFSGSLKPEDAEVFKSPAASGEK
T2 sequence (Q6RI86 whole entry): as the sequence (Q6RI86 whole entry) above

For CCCCCCCCCn1nnc(-c2ccc(O)c(OC)c2)n1, the IC50 [1] was 36 µM, the Efficacy [2] was 28.5% and the EC50 ([3]; read-out: EC50) was 6.9 µM. For the same compound, the EC50 ([4]; read-out: EC50) was 1.41 µM, the IC50 [5] was 1.71 µM and the Efficacy [6] was 65.9%.
C=CCN=C=S showed an Efficacy [6] of 38.9%.
For CCCCCC[C@H](C/C=C\CCCCCCCCn1nnc(-c2ccc(O)c(OC)c2)n1)OC(=O)Cc1ccccc1, the IC50 [1] was > 100 µM, the Efficacy [2] was < 10% and the EC50 ([3]; hek293) was “Not Active”. It also gave an EC50 ([4]; read-out: EC50) of 0.81 µM, an IC50 [5] of 2.9 µM and an Efficacy [6] of 72.6%.
With CCCCCCCC/C=C\CCCCCCCCn1nnc(-c2ccc(O)c(OC)c2)n1 the IC50 [1] was > 100 µM, the Efficacy [2] was 24.2% and the EC50 ([3]; read-out: EC50) was 5.5 µM. It also gave an EC50 ([4]; read-out: EC50) of 0.83 µM, an IC50 [5] of 1 µM and an Efficacy [6] of 83.1%.
CCCCCC[C@@H](O)C/C=C\CCCCCCCCn1nnc(-c2ccc(O)c(OC)c2)n1 gave an IC50 [1] of 57.5 µM, an Efficacy [2] of 21% and an EC50 ([3]; read-out: EC50) of 37.5 µM. The EC50 ([4]; read-out: EC50) was 36.7 µM, the IC50 [5] was 11.2 µM and the Efficacy [6] was 62.6%.
In the case of COc1cc(CNC(=O)CCCC/C=C/C(C)C)ccc1O [CAPSAICIN], the EC50 ([4]; hek293) is reported as “Not Active”.
